Experimental data published in ChEMBL document CHEMBL3232851 (Bioorg Med Chem, 2014).

Legend:
[1] = Membrane permeabilizing activity of the compound in calcein-loaded egg phosphatidylcholine liposomes assessed as release of calcein from liposomes at pH 6.8 after 10 mins by fluorescence assay; assay type: ADME, Microsome
[2] = biological target: T1, Prostaglandin G/H synthase 1 (Ovis aries, UniProt P05979); experiment: Inhibition of purified ovine COX-1 by enzyme immunoassay
T1 sequence (P05979 whole entry): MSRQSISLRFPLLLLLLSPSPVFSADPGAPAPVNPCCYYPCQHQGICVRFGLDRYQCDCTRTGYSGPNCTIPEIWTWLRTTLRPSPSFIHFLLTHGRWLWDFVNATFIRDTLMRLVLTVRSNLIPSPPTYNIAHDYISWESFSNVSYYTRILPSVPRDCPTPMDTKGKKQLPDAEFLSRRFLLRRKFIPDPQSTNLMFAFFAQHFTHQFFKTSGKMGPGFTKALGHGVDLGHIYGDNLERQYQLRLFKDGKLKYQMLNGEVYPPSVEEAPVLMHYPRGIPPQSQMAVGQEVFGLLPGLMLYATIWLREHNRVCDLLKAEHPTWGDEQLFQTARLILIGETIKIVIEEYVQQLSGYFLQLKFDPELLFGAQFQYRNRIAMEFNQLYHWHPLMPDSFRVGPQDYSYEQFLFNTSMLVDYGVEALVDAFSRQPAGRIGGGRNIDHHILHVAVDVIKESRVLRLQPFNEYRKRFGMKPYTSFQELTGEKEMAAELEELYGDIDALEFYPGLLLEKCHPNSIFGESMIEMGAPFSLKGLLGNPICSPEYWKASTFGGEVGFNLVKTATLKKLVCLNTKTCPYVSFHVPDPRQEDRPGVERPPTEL

[3] = tested on: COX-2; experiment: Ratio of EC50 for membrane permeabilization to IC50 for human recombinant COX-2
[4] = biological target: T2, Prostaglandin G/H synthase 2 (Homo sapiens, UniProt P35354); experiment: Inhibition of human recombinant COX-2 by enzyme immunoassay
T2 sequence (P35354 whole entry): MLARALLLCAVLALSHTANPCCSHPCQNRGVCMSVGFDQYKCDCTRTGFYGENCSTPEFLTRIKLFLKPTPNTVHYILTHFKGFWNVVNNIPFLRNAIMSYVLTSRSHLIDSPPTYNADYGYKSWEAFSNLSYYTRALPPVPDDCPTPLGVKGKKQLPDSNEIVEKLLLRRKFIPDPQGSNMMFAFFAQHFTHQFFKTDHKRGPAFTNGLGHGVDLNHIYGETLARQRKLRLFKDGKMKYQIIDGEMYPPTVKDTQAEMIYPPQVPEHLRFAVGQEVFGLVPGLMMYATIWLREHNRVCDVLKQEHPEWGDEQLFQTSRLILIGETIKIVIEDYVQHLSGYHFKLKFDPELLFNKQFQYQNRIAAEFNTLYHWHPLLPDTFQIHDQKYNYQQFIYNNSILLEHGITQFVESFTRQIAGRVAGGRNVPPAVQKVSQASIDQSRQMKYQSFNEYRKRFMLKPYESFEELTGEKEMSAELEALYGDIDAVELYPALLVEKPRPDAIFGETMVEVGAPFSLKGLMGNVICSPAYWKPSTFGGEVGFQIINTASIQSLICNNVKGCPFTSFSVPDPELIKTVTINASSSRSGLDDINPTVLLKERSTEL

SMILES	EC50 [1] [µM]	IC50 [2] [µM]	calcein release EC50/COX-2 IC50 ratio [3]	IC50 [4] [µM]
Cc1ccc(-c2cc(C(F)(F)F)nn2-c2ccc(S(C)(=O)=O)cc2)cc1	1440	> 500	11.1	0.13
Cc1ccc(C2=C(c3ccc(S(C)(=O)=O)cc3)COC2=O)cc1	6230	> 500	20.8	0.3
CS(=O)(=O)c1ccc(C2=C(c3ccccc3)C(=O)OC2)cc1 [ROFECOXIB]	12600			

Now those with a lower EC50 [1], led by results:

EC50 [1] [µM]	IC50 [2] [µM]	calcein release EC50/COX-2 IC50 ratio [3]	IC50 [4] [µM]	SMILES
480				NS(=O)(=O)c1ccc(C2=C(c3ccccc3)C(=O)OC2)cc1
1300	> 500	0.19	6.84	CS(=O)(=O)c1ccc(-n2nc(C(F)(F)F)cc2-c2ccccc2)cc1
24	385	0.22	0.11	Cc1ccc(C2=C(c3ccc(S(N)(=O)=O)cc3)COC2=O)cc1
50				Cc1ccc(-c2cc(C(F)(F)F)nn2-c2ccc(S(N)(=O)=O)cc2)cc1 [CELECOXIB]
